Assay [1] has as its system primary acute myeloid leukaemia (AML) blasts. In words: In vitro cytotoxicity assay (LD50) in primary acute myeloid leukaemia cells. Format: cell-based, human. Particulars: primary AML blasts, 48 h; concentration required to kill 50% of the tumour cells in culture. As to the method:
ProTide compounds, as defined herein, and the comparator ProTide compound NUC-1031 were assayed for their cytotoxic effects on primary cultures of acute myeloid leukaemia (AML) blasts. LD50 values (the concentration required to kill 50% of the tumour cells in culture) were calculated in respect of the ProTide compounds of the invention, and the parent compounds from which they are derived. […] The LD50 values of the ProTide compounds as defined herein (and their parent compounds) were compared with the comparator ProTide NUC-1031 and its parent compound gemcitabine.
Bone marrow samples were collected in ethylenediaminetetraacetic acid (EDTA) from newly diagnosed, previously untreated, acute myeloid leukaemia (AML) patients. AML blasts were enriched by density gradient centrifugation using Histopaque (Sigma, Poole, UK) and were subsequently maintained in Roswell Park Memorial Institute medium (RPMI) supplemented with 10% foetal bovine serum (FBS). Cells were treated with ProTide compounds (either as encompassed by the present invention, or the comparator ProTide NUC-1031) or with the ProTides' parent compounds at a range of experimental concentrations, and incubated for 48 h. All cultures were maintained at 37° C. in a 5% CO2 humidified atmosphere.
Cells were harvested and labelled with CD34-fluorescein isothiocyanate (FITC) (BD Biosciences, Buckingham, UK) and then resuspended in 200 μl of binding buffer containing 4 μl of annexin V labelled with allophycocyanin (APC) (eBioscience Ltd, Hatfield, UK). Apoptosis was quantified in the CD34^+ AML cells using an Accuri C6 flow cytometer (Becton Dickinson, CA, USA). At least 10,000 events were acquired and data were subsequently analysed using FlowJo software (Tree Star Inc., Ashland, Oreg., USA). All LD50 values (concentration of drug required to kill 50% of cells) were derived from the dose-response curves.

Assay [2] concerns Lin^−/CD34^+/CD38^−/CD123^+ cancer stem cells in KG1a cells. In words: Immunophenotypic quantification of the leukaemic stem cell compartment in KG1a cells. Format: cell-based, human. Conditions: KG1a cells. The protocol: The respective abilities of NUC-1031 and gemcitabine to target CSCs were investigated in the AML cell line KG1a.
KG1a cells were cultured for 72 hours in the presence of a wide range of concentrations of each nucleoside analogue and their respective ProTides. Cells were then harvested and labelled with a cocktail of anti-lineage antibodies (PE-cy7), anti-CD34 (FITC), anti-CD38 (PE) and anti-CD123 (PERCP cy5). The sub-population expressing a leukaemic stem cell (LSC) phenotype were subsequently identified and were expressed as a percentage of all viable cells left in the culture. The percentages of stem cells remaining were then plotted on a dose-response graph and the proportion of cancer stem cells was compared across the various concentrations of ProTides and their respective parent compounds, in order to determine if they preferentially target cancer stem cells.
The data obtained in these experiments were evaluated using one way ANOVA. All data was confirmed as Gaussian or a Gaussian approximation using the omnibus K2 test. LD50 values were calculated from the non-linear regression and line of best-fit analysis of the sigmoidal dose-response curves. All statistical analyses were performed using Graphpad Prism 6.0 software (Graphpad Software Inc., San Diego, Calif.).

The structures appear in SMILES notation. Entries after “also recorded” stand apart in the source; their conditions may differ.

Turning to `C[C@H](NP(=O)(OC[C@H]1O[C@@H](n2ccc(N)nc2=O)C(F)(F)[C@@H]1O)Oc1ccccc1)C(=O)OCc1ccccc1` (stereo partly drawn) [NUC-1031, 2′-deoxy-2′,2′-difluoro-D-cytidine-5′-O-[phenyl (benzoxy-L-alaninyl)] phosphate], the LD50 entry in assay [1] was “NUC-1031 0.28 μM”. Also, the “selectivity against cancer stem cells compared to the parent compound” value in assay [2] was “preferential targeting of CSCs; also recorded: statistically significantly greater”.

(Values after patent US11400107B2, “Cancer treatments” (NuCana plc, priority 2016, dated 2022).)
